Columns and labels:
[1] = test system: mouse M5076 tumor (M5076 reticulosarcoma); experiment: Antitumor effect on mouse M5076 tumor (M5076 reticulosarcoma), s.c.-p.o.; type: in vivo; details: for TI (therapeutic index): calculated from LD50 (single i.p.) and ID50 (p.o.); for dosage of GImax (in parentheses): dosage giving GImax, no mortal case; for dosage of GImax (in parentheses) / ID50 (dosage by which the GI value after 5 administrations shows 50%): p.o. once a day for 5 days; for GImax (maximum growth inhibition rate in the dosage range by which no mortal case can be found): male BDF1 mouse, 1×10^6 cells s.c., drug p.o. once a day for 5 days, 30 days of observation, average tumor weights vs non-treated group; for ID50 (dosage by which the GI value after 5 administrations shows 50%): calculated from linear regression line of GI at each dosage
Experimental: Test on antitumor effect on mouse M5076 tumor
A total of 1×10^6 cells of mouse M5076 tumor were transplanted subcutaneously (s.c.) of a 6-week age male BDF1 mouse, a drug (compound of the present invention) was administered orally (p.o.) once a day for 5 days starting on the next day and then, after 30 days of observation, growth inhibition rate (GI) was calculated from the average tumor weights in the drug-treated group and the non-treated group. […] Each of the drugs to be tested was prepared just before its use by dissolving or suspending the drug (compound of the present invention) in olive oil using a handy sonicator. The dosage was 0.1 ml per 10 g mouse body weight. In Table 1, GImax is the maximum value (%) of GI in the dosage range by which no mortal case can be found, and its dosage (mg/kg) is shown in parentheses.

[2] = LD50 (50% lethal dose by single intraperitoneal administration); type: in vivo, mouse; details: 50% lethal dose by single intraperitoneal administration, obtained at the time of dose setting
[3] = background statement, derivative of cisplatin; cited from earlier work
[4] = background statement, cited from earlier work

Compound	TI (therapeutic index) [1]	dosage of GImax (in parentheses) [1] [mg/kg]	GImax (maximum growth inhibition rate in the dosage range by which no mortal case can be found) [1] [%]	ID50 (dosage by which the GI value after 5 administrations shows 50%) [1] [mg/kg]	LD50 [2] [mg/kg]	solubility in water [3]	renal toxicity ([4]; derivative of cisplatin)	nephropathy as a side effect [4]
trans-bis (acetato) 1,1-cyclobutanedicarboxylato (1,3-diamino-2-propanol) platinum (IV) [Compound 5]	9.2	64.0	61.4	38.4	353.0	–	–	–
N.N.O=C([O-])C1(C(=O)[O-])CCC1.[Pt+2] [Carboplatin, carboplatin, reference compound]	2.0	256.0	75.3	119.9	245.0	increased solubility in water	reduced renal toxicity	–
N.N.[Cl][Pt][Cl] [Cisplatin, cisplatin, reference compound]	–	8.0	74.5	3.2	–	–	–	sometimes causes serious nephropathy
O=C([O][Pt-2]12([O]C(=O)C(F)(F)F)([NH2+]CC(O)C[NH2+]1)[O]C(=O)C1(CCC1)C(=O)[O]2)C(F)(F)F (stereo not drawn) [Compound 18, 1,1-cyclobutanedicarboxylato trans-bis(trifluoroacetato) (1,3-diamino-2-propanol)platinum (IV)]	18.4	32.0	95.6	9.6	176.8	–	–	–
1,1-cyclobutanedicarboxylato trans-dihydroxo (1,3-diamino-2-propanol)platinum (IV) [Compound 1]	> 25.0	32.0	95.6	< 8.0	> 200.0	–	–	–
O=C(OC1C[NH2+][Pt-2]2([O]C(=O)C(F)(F)F)([O]C(=O)C(F)(F)F)([NH2+]C1)[O]C(=O)C1(CCC1)C(=O)[O]2)C(F)(F)F (stereo not drawn) [Compound 11, 1,1-cyclobutanedicarboxylato trans-bis(trifluoroacetato) (O-trifluoroacetyl-1,3-diamino-2-propanol)platinum (IV)]	17.3	32.0	86.5	10.2	176.5	–	–	–

— patent US5902826A, “Platinum (IV) complex and pharmaceutical composition comprising the same” (SS Pharmaceutical Co., Ltd., priority 1997, dated 1999)
